Results taken from ChEMBL document CHEMBL5465560, “Selectivity Literature for EUbOPEN Chemogenomic Library” (2024).

Tests used:
[1] = molecular target: CDK4/Cyclin D3 (Homo sapiens) (UniProt P11802+P30281); assay: (§1) Selectivity interaction (Rxn Biology Kinase assay) EUB0001632a CDK4; format: protein-complex assay; settings: at 10 µM
[2] = molecular target: Cyclin-dependent kinase 4/cyclin D1 (Homo sapiens) (UniProt P11802+P24385); assay: as §1; format: protein-complex assay; settings: at 10 µM
[3] = molecular target: T1, Serine/threonine-protein kinase 36 (Homo sapiens) (UniProt Q9NRP7); assay: Selectivity interaction (KinomeScan (DiscoverX)) EUB0000229b STK36; settings: at 10 µM
T1 sequence (whole entry): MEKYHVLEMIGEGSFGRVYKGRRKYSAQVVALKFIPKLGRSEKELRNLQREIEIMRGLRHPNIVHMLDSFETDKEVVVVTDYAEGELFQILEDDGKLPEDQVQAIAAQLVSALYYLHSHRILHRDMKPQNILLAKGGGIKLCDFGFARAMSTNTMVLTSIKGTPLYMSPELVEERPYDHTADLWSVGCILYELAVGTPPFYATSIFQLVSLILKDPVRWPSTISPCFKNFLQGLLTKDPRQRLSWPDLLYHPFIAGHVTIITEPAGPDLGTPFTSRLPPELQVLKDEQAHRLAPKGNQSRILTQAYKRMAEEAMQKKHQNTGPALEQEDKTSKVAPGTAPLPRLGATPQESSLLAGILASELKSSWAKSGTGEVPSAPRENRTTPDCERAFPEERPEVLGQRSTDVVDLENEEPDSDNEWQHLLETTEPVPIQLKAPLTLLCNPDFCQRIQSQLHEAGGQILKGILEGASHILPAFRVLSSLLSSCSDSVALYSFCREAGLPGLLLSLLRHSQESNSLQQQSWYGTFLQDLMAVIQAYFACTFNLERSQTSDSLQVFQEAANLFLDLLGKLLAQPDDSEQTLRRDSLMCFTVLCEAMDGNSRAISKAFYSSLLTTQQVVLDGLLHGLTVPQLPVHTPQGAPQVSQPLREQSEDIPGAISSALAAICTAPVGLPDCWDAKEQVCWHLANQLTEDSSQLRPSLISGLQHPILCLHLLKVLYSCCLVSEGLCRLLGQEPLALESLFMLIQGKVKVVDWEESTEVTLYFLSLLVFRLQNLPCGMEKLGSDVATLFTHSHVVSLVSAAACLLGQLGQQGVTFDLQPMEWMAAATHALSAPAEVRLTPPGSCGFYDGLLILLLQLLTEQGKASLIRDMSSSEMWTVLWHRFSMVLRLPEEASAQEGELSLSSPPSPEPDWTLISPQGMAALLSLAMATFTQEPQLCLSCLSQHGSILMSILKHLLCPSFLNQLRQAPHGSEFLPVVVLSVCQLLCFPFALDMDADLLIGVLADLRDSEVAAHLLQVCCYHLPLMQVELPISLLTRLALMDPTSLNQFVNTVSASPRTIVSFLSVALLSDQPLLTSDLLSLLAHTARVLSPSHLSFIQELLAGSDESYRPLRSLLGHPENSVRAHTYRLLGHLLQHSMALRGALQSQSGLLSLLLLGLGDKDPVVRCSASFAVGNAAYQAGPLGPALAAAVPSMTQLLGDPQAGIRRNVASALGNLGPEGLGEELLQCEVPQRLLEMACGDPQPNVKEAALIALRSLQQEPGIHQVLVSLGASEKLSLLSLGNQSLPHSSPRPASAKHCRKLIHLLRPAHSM

[4] = molecular target: Cyclin-dependent kinase-like 3 (Homo sapiens) (UniProt Q8IVW4); assay: Selectivity interaction (KinomeScan (DiscoverX)) EUB0000655a CDKL3; settings: at 10 µM
[5] = molecular target: Tyrosine-protein kinase Fes/Fps (Homo sapiens) (UniProt P07332); assay: Selectivity interaction (KinomeScan (DiscoverX)) EUB0000666a FES; settings: at 10 µM
[6] = molecular target: T2, Serine/threonine-protein kinase ULK2 (Homo sapiens) (UniProt Q8IYT8); assay: Selectivity interaction (KinomeScan (DiscoverX)) EUB0000666a ULK2; settings: at 10 µM
T2 sequence (whole entry): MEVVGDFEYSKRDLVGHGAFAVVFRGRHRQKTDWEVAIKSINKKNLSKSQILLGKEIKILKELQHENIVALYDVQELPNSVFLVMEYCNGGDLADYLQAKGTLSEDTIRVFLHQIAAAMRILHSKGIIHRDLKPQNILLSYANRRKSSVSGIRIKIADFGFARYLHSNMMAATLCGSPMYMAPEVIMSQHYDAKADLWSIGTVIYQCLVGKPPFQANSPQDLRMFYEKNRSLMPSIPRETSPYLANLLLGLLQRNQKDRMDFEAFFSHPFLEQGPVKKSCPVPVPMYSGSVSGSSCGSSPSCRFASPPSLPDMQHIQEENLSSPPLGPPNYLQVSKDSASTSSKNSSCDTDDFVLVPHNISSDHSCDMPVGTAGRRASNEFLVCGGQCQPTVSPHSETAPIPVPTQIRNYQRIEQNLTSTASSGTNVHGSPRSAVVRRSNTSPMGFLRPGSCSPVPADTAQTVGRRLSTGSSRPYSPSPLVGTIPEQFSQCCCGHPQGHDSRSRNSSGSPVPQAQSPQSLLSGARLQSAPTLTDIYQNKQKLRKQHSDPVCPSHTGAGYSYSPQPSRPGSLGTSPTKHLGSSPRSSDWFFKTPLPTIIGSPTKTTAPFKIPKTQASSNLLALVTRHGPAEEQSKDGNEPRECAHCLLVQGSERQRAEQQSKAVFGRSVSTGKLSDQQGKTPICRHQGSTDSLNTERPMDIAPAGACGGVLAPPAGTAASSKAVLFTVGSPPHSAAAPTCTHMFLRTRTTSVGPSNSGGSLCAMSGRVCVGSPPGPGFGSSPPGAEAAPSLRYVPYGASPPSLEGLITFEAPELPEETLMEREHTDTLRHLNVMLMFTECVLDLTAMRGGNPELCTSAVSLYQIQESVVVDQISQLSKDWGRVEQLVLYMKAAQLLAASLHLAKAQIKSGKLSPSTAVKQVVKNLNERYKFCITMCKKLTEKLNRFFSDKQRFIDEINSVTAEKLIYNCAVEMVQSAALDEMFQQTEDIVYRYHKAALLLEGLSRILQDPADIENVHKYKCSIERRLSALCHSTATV

[7] = molecular target: T3, Aurora kinase A (Homo sapiens) (UniProt O14965); assay: Selectivity interaction (Kinase panel (DSF assay)) EUB0001558a STK6
T3 sequence (whole entry): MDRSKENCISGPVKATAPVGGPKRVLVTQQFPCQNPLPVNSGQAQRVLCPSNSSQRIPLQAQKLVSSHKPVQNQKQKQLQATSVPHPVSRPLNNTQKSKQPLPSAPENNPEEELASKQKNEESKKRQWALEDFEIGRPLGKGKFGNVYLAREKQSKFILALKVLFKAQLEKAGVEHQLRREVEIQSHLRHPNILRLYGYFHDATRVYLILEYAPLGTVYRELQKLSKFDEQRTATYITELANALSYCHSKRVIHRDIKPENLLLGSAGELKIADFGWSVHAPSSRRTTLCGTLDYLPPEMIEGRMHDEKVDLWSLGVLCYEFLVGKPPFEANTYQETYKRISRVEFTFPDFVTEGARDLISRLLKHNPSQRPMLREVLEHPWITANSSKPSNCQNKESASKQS

Sequence of Cyclin-dependent kinase-like 3 (Homo sapiens) (Q8IVW4 whole entry, looked up): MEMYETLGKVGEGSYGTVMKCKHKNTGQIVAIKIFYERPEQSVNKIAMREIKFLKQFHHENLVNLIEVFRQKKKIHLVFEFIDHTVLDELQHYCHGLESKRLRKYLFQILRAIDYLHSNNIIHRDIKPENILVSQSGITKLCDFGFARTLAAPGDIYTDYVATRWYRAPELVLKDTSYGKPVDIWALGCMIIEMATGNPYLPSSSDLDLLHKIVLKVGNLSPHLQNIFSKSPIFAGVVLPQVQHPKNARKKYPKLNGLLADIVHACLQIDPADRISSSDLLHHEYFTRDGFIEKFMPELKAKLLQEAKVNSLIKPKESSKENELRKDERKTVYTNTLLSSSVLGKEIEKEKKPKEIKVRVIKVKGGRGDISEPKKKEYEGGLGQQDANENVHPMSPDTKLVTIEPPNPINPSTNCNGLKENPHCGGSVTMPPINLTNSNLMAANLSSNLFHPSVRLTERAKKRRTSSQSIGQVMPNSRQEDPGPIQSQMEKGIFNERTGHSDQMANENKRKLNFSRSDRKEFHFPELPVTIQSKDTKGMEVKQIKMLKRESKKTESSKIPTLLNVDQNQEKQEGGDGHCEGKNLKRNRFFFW
Sequence of Tyrosine-protein kinase Fes/Fps (Homo sapiens) (P07332 whole entry): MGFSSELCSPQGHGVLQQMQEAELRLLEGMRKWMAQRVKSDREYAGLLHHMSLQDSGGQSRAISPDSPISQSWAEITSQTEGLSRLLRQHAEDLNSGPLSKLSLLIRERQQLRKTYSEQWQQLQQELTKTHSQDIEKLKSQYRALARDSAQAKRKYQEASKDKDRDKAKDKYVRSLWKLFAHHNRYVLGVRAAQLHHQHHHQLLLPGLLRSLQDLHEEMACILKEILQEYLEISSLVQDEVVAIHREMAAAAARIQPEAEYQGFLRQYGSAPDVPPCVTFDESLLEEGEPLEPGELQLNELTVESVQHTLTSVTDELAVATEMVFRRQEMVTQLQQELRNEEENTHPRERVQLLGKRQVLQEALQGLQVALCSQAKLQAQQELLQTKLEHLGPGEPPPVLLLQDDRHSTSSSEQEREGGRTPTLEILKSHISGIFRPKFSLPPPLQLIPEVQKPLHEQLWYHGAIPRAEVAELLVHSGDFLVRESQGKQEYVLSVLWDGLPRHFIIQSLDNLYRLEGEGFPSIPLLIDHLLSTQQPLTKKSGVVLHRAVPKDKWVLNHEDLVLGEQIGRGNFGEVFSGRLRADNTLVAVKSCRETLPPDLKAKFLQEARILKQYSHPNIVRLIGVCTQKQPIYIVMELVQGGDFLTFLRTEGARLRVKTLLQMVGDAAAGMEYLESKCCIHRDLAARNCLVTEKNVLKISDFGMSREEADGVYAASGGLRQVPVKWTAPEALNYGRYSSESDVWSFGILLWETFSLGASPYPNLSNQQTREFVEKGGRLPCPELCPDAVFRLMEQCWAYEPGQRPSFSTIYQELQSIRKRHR

With `Cn1cc(-n2cnc3c(NCc4nc5cc(Cl)c(Cl)cc5[nH]4)nc(N4CCOCC4)nc32)cn1` the % of inhibition [1] was 46.3% and the % of inhibition [2] was 46.7%.

`COc1cc(N(C)c2ccnc3ccc(C(F)(F)F)cc23)cc(OC)c1OC` showed a % binding [3] of 100%.

Work on `CN(C)CCOc1ccc(-c2nc(-c3ccncc3)c(-c3ccc4c(c3)CC/C4=N\O)[nH]2)cc1` yielded a % of control [4] of 100%.

Work on `O=C(NOC[C@H](O)CO)c1ccc(F)c(F)c1Nc1ccc(I)cc1F` yielded a % of control [5] of 100% and a % of control [6] of 97%.

In the case of `CC(C)(O)[C@H](F)CN1Cc2cc(NC(=O)c3cnn4cccnc34)c(N3CCOCC3)cc2C1=O`, the dTM [7] is reported as 3.3 K.
